Measured values reported in patent US7504415B2, “Therapeutic agent for glomerular disease” (Kowa Co., Ltd., priority 2001, dated 2009).

Experiments:
[1] = test system: progressive anti-Thy-1 nephritic rat; assay: Pharmacological test using progressive anti-Thy-1 nephritic rats; format: in vivo; details: 20 mg/kg perorally once/day, 10 weeks
Experimental: (1) Wistar female rats (5 weeks old, purchased from Japan SLC Co., Ltd.) were quarantined and acclimatized for four days, and used for the test. First, the right kidney of each rat was removed through flank incision under anesthesia with pentobarbital. Two weeks after removal of the right kidney, an anti-Thy-1 antibody (anti-mesangial-cell antibody/monoclonal antibody 1-22-3; purchased from Panafarm Laboratories Co., Ltd.) was intravenously administered (500 μg/rat) into the tail vein, whereby progressive anti-Thy-1 nephritis was induced. Immediately thereafter, compound A which had been suspended in an aqueous 0.5% sodium carboxymethyl cellulose solution was perorally administered via a peroral probe to each rat in a forced and continuous manner (20 mg/kg body weight, once/day, 10 weeks). After completion of 10 weeks' administration of compound A, urine was taken from each rat for 18 hours in a metabolic cage (Sugiyama Gen Co., Ltd.), and the total amount of protein excreted into the urine was determined.
(2) After completion of the urine analysis, the left kidney was extirpated from each rat, fixed in formalin, and embedded with paraffin. A thin slice obtained from the thus-treated kidney was stained with hematoxylin and eosin (HE), and observed under a stereoscopic microscope. […] The ratio was evaluated on the basis of the following classification. […]

[2] = test system: Human mensagial cells; assay: Mensagial matrix (PIP) production inhibition test, TGF-β1-stimulated, ELISA; format: cell-based; details: TGF-β1 10 ng/mL stimulation, 72 hours culture, PIP by ELISA, read-out: PIP production inhibitory activity (IC50)
Experimental: (1) Culture and Storage of Human Mensagial Cells
Human mensagial cells (normal human mensagial cells, CryoNHMC, product of Sanko Junyaku Co., Ltd.) were cultured in MsGM medium (15 mL/flask) by use of two 75-cm^2 flasks (430720, CORNING). The medium was replaced with fresh medium every 2 to 3 days. Subsequently, the culture was scaled up to a 225-cm^2 flask (3000, COSTER) level, and three vials of passage 5 and 27 vials of passage 6 were prepared at a cell count of 5×10^6 cells/Cell Banker 1 mL/vial (430659, CORNING). The thus-cultured cell samples were stored in a container cooled by liquid nitrogen.
(2) Determination of Mansagial Matrix Production Inhibitory Activity
Cryopreserved human mensagial cells of passage 6 were revived and sown in a medium placed in a 75-cm^2 flask. The medium was replaced the next day, and incubation was continued for three more days. The thus-cultured cells were treated with 0.25% trypsin-0.02% EDTA. […] After completion of culturing, the PIP level of each culture liquid was determined through ELISA by use of a PIP determination kit (product of TAKARA). The percent inhibition (%) was calculated in accordance with the following equation, and the PIP production inhibitory activity (IC50 value) was derived from the percent inhibition. […]

[3] = test system: Slc: Wistar rats; assay: Acute toxicity test; format: in vivo, rat
Experimental: Slc: Wistar rats (5 male rats and 5 female rats, 6 weeks old, purchased from Japan SLC Co., Ltd.) were subjected to fasting overnight. After fasting, compound A which had been suspended in an aqueous 0.5% sodium carboxymethyl cellulose solution was perorally administered in a forced manner to each male rat (500 mg/kg) and each female rat (250 mg/kg).

[4] = test system: renal failure model (5/6 nephrectomized) rats; assay: Renal failure model (5/6 nephrectomized) rats; format: in vivo, rat; details: 15 mg/kg perorally once a day
Excerpt: Male Wistar rats (10 weeks old, 300 to 350 g, purchased from Japan SLC Co., Ltd.) were anesthetized with pentobarbital, and the right kidney of each rat was extirpated. Subsequently, the left kidney was exposed. Under a stereoscopic microscope, two of the left renal artery branches (generally, one renal artery is separated into three branches) were ligated and one central branch was left intact, to thereby provide a 5/6 nephrectomized rat. When a renal artery branch is ligated, a portion controlled by the branch falls into ischemia, and such ischemic renal portion can be visually detected. The thus-produced renal failure models were evaluated in terms of increase in blood urea nitrogen level (BUN) one day after the ligation.
The rats were divided into three groups such that the BUN level (one day after ligation) of the groups were equalized, and compound A was administered to each rat of the groups. The groups consisted of a normal rat group (N=5); a 5/6 nephphrectomized and drug-untreated group (control: N=8); and a 5/6 nephrectomized and compound-A-administered group (15 mg/kg: N=8). […] The (total protein)/creatinine ratio (UP/Ucr) in a urine sample and the BUN level were determined on days 7, 14, 21, 28, and 35 after ligation.

Question: “monocalcium (+)-bis[(3R, 5S, 6E)-7-[2-cyclopropyl-4-(4-fluorophenyl)-3-quinolyl]-3,5-dihydroxy-6-heptenoate] [compound A]” was tested. Which “total amount of protein excreted into urine (18 hours)” value ([1]; FIG. 1) did it give?
Answer: Its value is “significantly lowered”.

Question: What about the “lesions occurring in the malpighian tubes and stroma (tubulointerstitial damage score, HE staining)” value ([1]; FIG. 2) of the same substance?
Answer: Its value is “significantly inhibited”.

Question: What about the IC50 [2] of the same substance?
Answer: The IC50 was 22.4 µM.

Question: What about the “death during observation period of 14 days” value ([3]; female rats, 250 mg/kg single peroral dose after overnight fasting) of the same substance?
Answer: The value was “no case of death”.

Question: What about the “death during observation period of 14 days” value ([3]; male rats, 500 mg/kg single peroral dose after overnight fasting) of the same substance?
Answer: The value was “no case of death”.

Question: What about the “blood urea nitrogen (BUN) level” value ([4]; after week 4, FIG. 4) of the same substance?
Answer: Its value is “significant decrease”.

Question: And the “(total protein)/creatinine ratio (UP/Ucr) in urine” value ([4]; weeks 7 and 8 after administration, vs drug-untreated group, FIG. 3)?
Answer: Its value is “significantly decreases”.
